# US20230272221A1, “REAGENTS FOR LABELING BIOMOLECULES” (Ultima Genomics, Inc., priority 2020, published 2023)
# Key:
# [1] = enzyme-independent bead assay for evaluating quenching with linker arm oligonucleotides; type: physicochemical; settings: APC (red) channel, FIG. 14
# Source text: The dye-labeled nucleotides provided herein may improve quenching between nucleobases and the dyes to which they are attached and/or between dyes in a nucleic acid molecule (e.g., a growing nucleic acid strand), such as in a homopolymeric region of a nucleic acid molecule. Quenching may be evaluated in an enzyme-independent manner.
# Synthetic oligos are constructed with one or two “linker arm nucleotides”. Linker arm nucleotides are thymidine analogs with a linker arm containing a primary amine. The oligonucleotide containing the linker arm nucleotide can be labeled with linkers and dyes and HPLC purified. The advantage of using the bead-labeled assay is that exact quantitation of the reagents is not necessary; a large excess can be used in each step and the beads washed, ensuring that only stoichiometric amounts of oligonucleotides are bound to the template. Each dye-linker is put on both oligonucleotides. The beads are measured on the flow cytometer in the APC (red) channel. The percent quenching is determined by the formula: % quenching=100×(1−Flbis/(2*Flmono)).
# FIGS. 14 and 15 show quenching results for red dye linkers (FIG. 14) and green dye linkers (FIG. 15). […] The hyp10 or hyp20 linkers improve quenching.
# [2] = relative fluorescence of dyes coupled directly to oligos, double-stranded DNA bound to beads, flow cytometer; type: physicochemical; settings: FIG. 26
# Method: Fluorescence was measured with double-stranded DNA bound to beads using a flow cytometer. […] Accordingly, green dyes may have an inherent advantage over red dyes. This difference may owe at least in part to Atto633 being hydrophobic while Atto532 is comparatively hydrophilic.
Structure (SMILES),"quenching, red dye linkers [1]",brightness of two dyes relative to a single dye coupled to an oligo [2] [×]
CC[N+]1=c2cc3c(cc2CCC1)=C(c1ccccc1C(=O)N(C)CCCC(=O)O)c1ccc(N(C)C)cc1C3(C)C [Atto633],hyp10 improves quenching,0.4
CCN1/C(=C/C=C/C=C/C2=[N+](CCCCCC(=O)O)c3ccc(S(=O)(=O)O)cc3C2(C)C)C(C)(C)c2cc(S(=O)(=O)[O-])ccc21 [Cy5],quenching may not be improved,–
